Measurements as given in publication PMC5007443, “TNIK inhibition abrogates colorectal cancer stemness” (Nature Communications, 2016).
Several values for one entry are separate records, joined by “and”; a condition that tells them apart may be missing. Equal values may be shown once.

Key:
[1] = biological target: ABL (Homo sapiens, UniProt P00519); test: Kinase selectivity profiling, c-Abl oncogene 1; format: biochemical; settings: read-out: Percentage inhibition of ABL
Method: (§1) The selectivity of compounds against a panel of 50 human protein kinases was assessed using a non-radiometric assay.

[2] = biological target: FGFR1 (Homo sapiens, UniProt P11362); test: Kinase selectivity profiling, Fibroblast growth factor receptor 1; format: biochemical; settings: read-out: Percentage inhibition of FGFR1
Method: as §1

[3] = biological target: PDGFRα (Homo sapiens, UniProt P16234); test: Kinase selectivity profiling, Platelet-derived growth factor receptor α; format: biochemical; settings: 0.1 µM inhibitor, ATP at Km; for inhibition at 0.1 µM: read-out: Percentage inhibition of PDGFRα
Method: as §1

[4] = biological target: SYK (Homo sapiens, UniProt P43405); test: Kinase selectivity profiling, Spleen tyrosine kinase; format: biochemical; settings: read-out: Percentage inhibition of SYK
Method: as §1

[5] = biological target: TYRO3 (Homo sapiens, UniProt Q06418); test: Kinase selectivity profiling, Tyro3 receptor tyrosine kinase; format: biochemical; settings: read-out: Percentage inhibition of TYRO3
Method: as §1

[6] = biological target: CDK2/CycA2 (Homo sapiens, UniProt P24941); test: Kinase selectivity profiling, Cyclin-dependent kinase 2/cyclin A2; format: biochemical; settings: 0.1 µM inhibitor, ATP at Km
Method: as §1

[7] = biological target: MAPKAPK2 (Homo sapiens, UniProt P49137); test: Kinase selectivity profiling, Mitogen-activated protein kinase-activated protein kinase 2; format: biochemical; settings: read-out: Percentage inhibition of MAPKAPK2
Method: as §1

[8] = biological target: MST1 (Homo sapiens, UniProt Q13043); test: Kinase selectivity profiling; format: biochemical; settings: read-out: Percentage inhibition of MST1
Method: as §1

[9] = biological target: PDK1 (Homo sapiens, UniProt O15530); test: Kinase selectivity profiling; format: biochemical; settings: read-out: Percentage inhibition of PDK1
Method: as §1

[10] = biological target: PKD2 (Homo sapiens, UniProt Q9BZL6); test: Kinase selectivity profiling; format: biochemical; settings: read-out: Percentage inhibition of PKD2
Method: as §1

[11] = biological target: p38α (Homo sapiens, UniProt Q16539); test: Kinase selectivity profiling, Mitogen-activated protein kinase 14; format: biochemical; settings: read-out: Percentage inhibition of p38α
Method: as §1

[12] = biological target: p70S6K (Homo sapiens, UniProt P23443); test: Kinase selectivity profiling, Ribosomal protein S6 kinase; format: biochemical; settings: read-out: Percentage inhibition of p70S6K
Method: as §1

[13] = biological target: PKACα (Homo sapiens, UniProt P17612); test: Kinase selectivity profiling, cAMP-dependent protein kinase, catalytic subunit α; format: biochemical; settings: read-out: Percentage inhibition of PKACα
Method: as §1

[14] = test system: HCT116 cells; test: Cell cycle analysis by flow cytometry; format: cell-based, human; settings: HCT116, 3 μM
Method: Cells were dissociated with Accutase, fixed with 70% EtOH at −20 °C, stained with Guava Cell Cycle reagent (Merck-Millipore) in accordance with the manufacturer's instructions, and analysed using a Guava easy Cyte HT flow cytometer (Merck-Millipore). Cell doublets were eliminated by doublet discrimination gating. Data were analyzed using FLOWJO version 10 software (Treestar; Fig. 3e). Experiments were performed in triplicate and repeated at least two times.

[15] = test system: HCT116 cells; test: Immunoblotting of CSC, mesenchymal and embryonal stem cell markers in HCT116 cells; format: cell-based, human; settings: HCT116, 3 μM, 48 or 72 h
Method: Protein samples were fractionated by SDS–PAGE and blotted onto Immobilon-P membranes (Millipore) as described previously. After incubation with the primary antibodies (listed in Supplementary Table 4) at 4 °C overnight, the blots were detected with the relevant horseradish peroxidase-conjugated anti-mouse or anti-rabbit IgG antibody (Cell Signaling Technology) and Western lighting ECL Pro (PerkinElmer). Signals were visualized with the LAS-4010 system (GE Healthcare). Uncropped versions of the blots in Figs 2e and 3f are shown in Supplementary Fig. 15.

[16] = test system: DLD-1 cells; test: Limiting dilution analysis of sphere formation, DLD-1; format: cell-based, human
Method: One million HCT116 and DLD-1 cells were seeded onto 60-mm plates and treated with vehicle (DMSO) or compounds (0.1, 0.3 or 1.0 μM) for either 3 or 4 days. After washing off the compounds, the cells were dissociated to single cells in serum-free DMEM/F12 medium (Thermo Fisher Scientific) containing B27 (Thermo Fisher Scientific), 20 ng ml^−1 epidermal growth factor (EGF; Thermo Fisher Scientific), 10 ng ml^−1 basic fibroblast factor (bFGF; Thermo Fisher Scientific), 5 μg ml^−1 insulin (Thermo Fisher Scientific), 0.4% bovine serum albumin (Sigma-Aldrich) and 2 mM L-glutamine (Thermo Fisher Scientific). One hundred, 10 or 1 viable (determined by trypan-blue dye exclusion) cells were seeded into each well of a 96-well U-bottom PrimeSurface plate (Sumitomo Bakelite). Ten days later, the number of wells showing sphere formation was counted. The frequency of sphere-forming cells was calculated using ELDA software (http://bioinf.wehi.edu.au/software/elda/index.html) provided by the Walter and Eliza Hall Institute (Fig. 5c; Supplementary Table 2). Experiments were performed in triplicate and repeated at least two times.

[17] = test system: HCT116 cells; test: In vivo tumorigenicity of pretreated HCT116 cells in NOD/ShiJic-scid mice; parameters: species or system mouse; settings: HCT116, short-term in vitro treatment
Method: After washing off the compounds, 10,000, 1,000, 100 or 10 viable cells in culture medium containing 50% Matrigel (BD Biosciences) were injected subcutaneously into the flanks of NOD/ShiJic-scid Jcl (6-week-old male) mice. The number of mice that developed tumours was counted, and the frequency of cells with tumour-forming capability was calculated using the ELDA software.

[18] = DLD-1, 3-day treatment, 0.1 μM, 1 cell per well
[19] = DLD-1, 3-day treatment, 0.1 μM, 10 cells per well
[20] = DLD-1, 3-day treatment, 0.1 μM, 100 cells per well
[21] = DLD-1, 3-day treatment, 0.3 μM, 1 cell per well
[22] = DLD-1, 3-day treatment, 0.3 μM, 10 cells per well
[23] = DLD-1, 3-day treatment, 0.3 μM, 100 cells per well
[24] = DLD-1, 3-day treatment, 1.0 μM, 1 cell per well
[25] = DLD-1, 3-day treatment, 1.0 μM, 10 cells per well
[26] = DLD-1, 3-day treatment, 1.0 μM, 100 cells per well
[27] = DLD-1, 4-day treatment, 0.1 μM, 1 cell per well
[28] = DLD-1, 4-day treatment, 0.1 μM, 10 cells per well
[29] = DLD-1, 4-day treatment, 0.1 μM, 100 cells per well
[30] = DLD-1, 4-day treatment, 0.3 μM, 1 cell per well
[31] = DLD-1, 4-day treatment, 0.3 μM, 10 cells per well
[32] = DLD-1, 4-day treatment, 0.3 μM, 100 cells per well
[33] = DLD-1, 4-day treatment, 1.0 μM, 1 cell per well
[34] = DLD-1, 4-day treatment, 1.0 μM, 10 cells per well
[35] = DLD-1, 4-day treatment, 1.0 μM, 100 cells per well

PDGFRα, sequence (P16234 24-1089): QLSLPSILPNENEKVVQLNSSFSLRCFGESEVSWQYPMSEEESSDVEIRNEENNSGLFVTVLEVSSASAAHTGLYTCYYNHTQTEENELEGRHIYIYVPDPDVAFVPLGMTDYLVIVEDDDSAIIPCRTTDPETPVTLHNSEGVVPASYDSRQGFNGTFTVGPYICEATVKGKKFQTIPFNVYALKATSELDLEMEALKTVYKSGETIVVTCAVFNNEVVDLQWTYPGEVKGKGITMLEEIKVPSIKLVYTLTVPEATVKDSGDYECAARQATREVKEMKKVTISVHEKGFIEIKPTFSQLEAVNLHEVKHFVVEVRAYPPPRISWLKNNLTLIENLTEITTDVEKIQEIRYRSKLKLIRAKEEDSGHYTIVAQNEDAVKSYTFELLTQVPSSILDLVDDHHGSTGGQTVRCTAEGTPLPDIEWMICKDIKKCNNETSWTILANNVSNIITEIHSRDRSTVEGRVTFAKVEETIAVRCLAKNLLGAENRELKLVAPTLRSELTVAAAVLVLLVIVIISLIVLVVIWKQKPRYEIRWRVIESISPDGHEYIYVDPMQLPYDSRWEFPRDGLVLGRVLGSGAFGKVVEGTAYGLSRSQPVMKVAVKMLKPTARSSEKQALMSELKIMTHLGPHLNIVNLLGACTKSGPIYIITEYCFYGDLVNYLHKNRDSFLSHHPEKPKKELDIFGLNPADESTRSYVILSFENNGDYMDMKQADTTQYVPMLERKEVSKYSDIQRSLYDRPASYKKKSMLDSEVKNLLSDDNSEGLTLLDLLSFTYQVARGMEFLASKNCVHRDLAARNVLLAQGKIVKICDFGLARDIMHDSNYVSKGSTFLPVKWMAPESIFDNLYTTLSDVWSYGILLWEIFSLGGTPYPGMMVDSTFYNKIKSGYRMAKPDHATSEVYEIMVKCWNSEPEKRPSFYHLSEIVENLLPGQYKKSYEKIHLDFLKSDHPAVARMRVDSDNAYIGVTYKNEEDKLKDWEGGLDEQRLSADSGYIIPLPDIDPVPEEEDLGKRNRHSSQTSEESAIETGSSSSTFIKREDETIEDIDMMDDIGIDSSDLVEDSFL
TYRO3, sequence (Q06418 41-890): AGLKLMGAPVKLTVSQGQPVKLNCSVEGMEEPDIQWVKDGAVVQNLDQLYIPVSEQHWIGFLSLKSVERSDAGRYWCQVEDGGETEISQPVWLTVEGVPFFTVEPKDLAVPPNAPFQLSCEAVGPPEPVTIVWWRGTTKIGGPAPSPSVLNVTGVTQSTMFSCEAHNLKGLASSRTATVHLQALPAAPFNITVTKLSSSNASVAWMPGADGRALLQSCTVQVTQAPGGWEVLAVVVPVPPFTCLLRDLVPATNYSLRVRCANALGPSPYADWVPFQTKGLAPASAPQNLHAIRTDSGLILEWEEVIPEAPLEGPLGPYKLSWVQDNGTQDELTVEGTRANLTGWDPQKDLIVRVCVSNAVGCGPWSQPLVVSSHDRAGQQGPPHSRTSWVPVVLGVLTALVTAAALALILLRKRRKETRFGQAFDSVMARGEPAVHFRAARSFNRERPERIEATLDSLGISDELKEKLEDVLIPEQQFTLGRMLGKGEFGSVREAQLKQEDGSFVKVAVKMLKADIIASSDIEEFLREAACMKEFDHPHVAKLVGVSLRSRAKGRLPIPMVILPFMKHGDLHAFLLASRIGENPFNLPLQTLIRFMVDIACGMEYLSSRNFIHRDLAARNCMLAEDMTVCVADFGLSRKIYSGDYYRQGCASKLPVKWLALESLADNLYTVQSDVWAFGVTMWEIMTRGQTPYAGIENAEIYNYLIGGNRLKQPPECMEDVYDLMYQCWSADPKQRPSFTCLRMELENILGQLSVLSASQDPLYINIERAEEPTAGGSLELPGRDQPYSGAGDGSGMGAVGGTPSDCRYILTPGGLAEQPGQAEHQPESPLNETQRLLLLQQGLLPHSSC
MAPKAPK2, sequence (P49137 whole entry): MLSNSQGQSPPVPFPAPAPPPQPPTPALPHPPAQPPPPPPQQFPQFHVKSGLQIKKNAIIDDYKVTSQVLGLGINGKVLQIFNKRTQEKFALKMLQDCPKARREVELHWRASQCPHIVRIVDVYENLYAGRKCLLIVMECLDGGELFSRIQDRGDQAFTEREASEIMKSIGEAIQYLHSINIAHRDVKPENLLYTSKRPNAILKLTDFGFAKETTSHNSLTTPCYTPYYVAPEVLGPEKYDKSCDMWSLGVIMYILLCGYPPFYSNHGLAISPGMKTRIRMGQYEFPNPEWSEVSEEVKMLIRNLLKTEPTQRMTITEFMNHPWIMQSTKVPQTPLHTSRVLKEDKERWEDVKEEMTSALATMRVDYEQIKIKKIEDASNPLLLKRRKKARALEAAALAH
ABL, sequence (P00519 whole entry): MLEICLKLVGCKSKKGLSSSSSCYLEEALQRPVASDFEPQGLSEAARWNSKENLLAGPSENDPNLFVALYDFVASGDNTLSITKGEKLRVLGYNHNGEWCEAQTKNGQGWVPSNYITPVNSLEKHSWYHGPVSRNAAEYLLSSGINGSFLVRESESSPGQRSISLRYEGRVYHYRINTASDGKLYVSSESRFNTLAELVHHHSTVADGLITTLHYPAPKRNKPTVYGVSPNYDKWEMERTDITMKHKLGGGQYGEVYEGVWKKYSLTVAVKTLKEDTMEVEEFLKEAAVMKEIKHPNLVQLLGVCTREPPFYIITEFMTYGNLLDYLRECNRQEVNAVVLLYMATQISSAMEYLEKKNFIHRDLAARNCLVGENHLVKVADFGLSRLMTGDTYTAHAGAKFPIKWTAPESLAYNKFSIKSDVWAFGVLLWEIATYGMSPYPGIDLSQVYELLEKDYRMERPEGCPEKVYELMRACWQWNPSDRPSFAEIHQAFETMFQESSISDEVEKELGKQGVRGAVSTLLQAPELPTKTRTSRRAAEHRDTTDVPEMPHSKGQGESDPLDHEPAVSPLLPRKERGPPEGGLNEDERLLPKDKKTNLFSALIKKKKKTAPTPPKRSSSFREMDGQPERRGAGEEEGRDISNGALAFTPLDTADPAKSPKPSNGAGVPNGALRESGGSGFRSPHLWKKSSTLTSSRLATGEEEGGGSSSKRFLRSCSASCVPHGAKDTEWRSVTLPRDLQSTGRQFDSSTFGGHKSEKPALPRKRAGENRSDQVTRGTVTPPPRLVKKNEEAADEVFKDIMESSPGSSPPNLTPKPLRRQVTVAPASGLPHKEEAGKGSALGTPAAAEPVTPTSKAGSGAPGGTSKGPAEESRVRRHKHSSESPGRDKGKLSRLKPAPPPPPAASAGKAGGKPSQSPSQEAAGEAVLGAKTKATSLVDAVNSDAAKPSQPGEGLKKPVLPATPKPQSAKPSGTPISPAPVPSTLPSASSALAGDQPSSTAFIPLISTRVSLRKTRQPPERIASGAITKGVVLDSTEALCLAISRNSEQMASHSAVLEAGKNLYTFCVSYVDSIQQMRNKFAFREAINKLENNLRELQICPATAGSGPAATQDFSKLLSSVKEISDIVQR
FGFR1, sequence (P11362 22-822): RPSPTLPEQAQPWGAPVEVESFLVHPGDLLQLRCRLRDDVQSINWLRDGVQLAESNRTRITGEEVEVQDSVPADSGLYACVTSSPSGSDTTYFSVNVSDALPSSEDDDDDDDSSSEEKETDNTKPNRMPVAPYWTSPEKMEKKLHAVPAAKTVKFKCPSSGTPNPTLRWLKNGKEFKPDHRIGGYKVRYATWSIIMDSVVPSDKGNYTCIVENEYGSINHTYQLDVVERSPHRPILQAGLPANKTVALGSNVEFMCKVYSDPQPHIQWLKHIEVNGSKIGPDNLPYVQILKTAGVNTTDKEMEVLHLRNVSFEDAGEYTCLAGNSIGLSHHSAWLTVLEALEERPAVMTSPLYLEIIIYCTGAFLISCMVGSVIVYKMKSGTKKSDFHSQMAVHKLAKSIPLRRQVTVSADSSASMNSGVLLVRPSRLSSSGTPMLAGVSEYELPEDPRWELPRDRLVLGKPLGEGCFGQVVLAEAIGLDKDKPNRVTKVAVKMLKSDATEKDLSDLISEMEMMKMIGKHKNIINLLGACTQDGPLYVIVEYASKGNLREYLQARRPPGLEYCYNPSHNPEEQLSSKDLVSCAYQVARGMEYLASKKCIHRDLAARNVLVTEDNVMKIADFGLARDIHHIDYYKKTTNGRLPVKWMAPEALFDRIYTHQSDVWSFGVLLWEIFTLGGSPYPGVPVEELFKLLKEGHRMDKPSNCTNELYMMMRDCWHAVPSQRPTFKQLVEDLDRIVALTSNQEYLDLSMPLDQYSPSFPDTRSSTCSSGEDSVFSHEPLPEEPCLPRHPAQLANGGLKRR
MST1, sequence (Q13043 whole entry): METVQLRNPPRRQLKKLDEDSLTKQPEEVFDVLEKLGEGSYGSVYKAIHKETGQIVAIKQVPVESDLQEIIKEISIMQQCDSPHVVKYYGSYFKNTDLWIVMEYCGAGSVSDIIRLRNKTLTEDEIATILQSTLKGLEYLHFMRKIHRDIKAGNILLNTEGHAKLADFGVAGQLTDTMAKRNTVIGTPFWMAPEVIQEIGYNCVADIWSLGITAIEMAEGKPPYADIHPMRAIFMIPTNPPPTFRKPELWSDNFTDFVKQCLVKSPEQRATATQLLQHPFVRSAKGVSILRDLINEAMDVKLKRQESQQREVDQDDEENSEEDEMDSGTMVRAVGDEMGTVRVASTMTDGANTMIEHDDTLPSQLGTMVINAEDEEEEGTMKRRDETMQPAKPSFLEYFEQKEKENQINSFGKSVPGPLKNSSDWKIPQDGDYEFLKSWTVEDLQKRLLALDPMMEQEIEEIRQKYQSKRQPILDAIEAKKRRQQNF

O[C@H]1CC[C@@H](Oc2cccc3cnc(Nc4ccc5nc[nH]c5c4)nc23)CC1 [NCB-0846, cis-4-(2-(3H-benzo[d]imidazol-5-ylamino)quinazolin-8-yloxy)cyclohexanol]
inhibition at 0.1 µM [1]: 16.9% | inhibition at 0.1 µM [2]: 32.5% | Percentage inhibition of PDGFRα ([3]; 0.1 µM): 89.0% | inhibition at 0.1 µM [3]: > 80% | inhibition at 0.1 µM [4]: 7.6% | inhibition at 0.1 µM [5]: 48.9% | Percentage inhibition of CDK2/CycA2 ([6]; 0.1 µM): > 80% and 101.1% | inhibition at 0.1 µM [7]: -5.8% | inhibition at 0.1 µM [8]: 57.8% | inhibition at 0.1 µM [9]: 2.4% | inhibition at 0.1 µM [10]: 18.8% | inhibition at 0.1 µM [11]: -3.5% | inhibition at 0.1 µM [12]: 11% | inhibition at 0.1 µM [13]: 0.9% | >4N (%) ([14]; 24 h): 6.1% | G0/G1 (%) ([14]; 24 h): 20.6% | G2/M (%) ([14]; 24 h): 30.6% | S (%) ([14]; 24 h): 14.1% | SubG1 (%) ([14]; 24 h): 28.6% | >4N (%) ([14]; 48 h): 3.1% | G0/G1 (%) ([14]; 48 h): 18.3% | G2/M (%) ([14]; 48 h): 20.1% | S (%) ([14]; 48 h): 11.1% | SubG1 (%) ([14]; 48 h): 47.4% | downregulation of expression of putative colorectal CSC markers CD44, CD133, ALDH1 [15]: downregulated | embryonal stem cell markers (Oct4, Nanog and Sox2) [15]: not affected | expression of mesenchymal markers (Slug, Snail, Twist, Smad2 and Vimentin) [15]: reduced | Sphere-containing wells/total wells [16, 18]: 55/96 | Sphere-containing wells/total wells [16, 19]: 95/96 | Sphere-containing wells/total wells [16, 20]: 96/96 | Sphere-containing wells/total wells [16, 21]: 23/96 | Sphere-containing wells/total wells [16, 22]: 86/96 | Sphere-containing wells/total wells [16, 23]: 96/96 | Sphere-containing wells/total wells [16, 24]: 3/96 | Sphere-containing wells/total wells [16, 25]: 25/96 | Sphere-containing wells/total wells [16, 26]: 77/96 | Sphere-containing wells/total wells [16, 27]: 39/96 | Sphere-containing wells/total wells [16, 28]: 92/96 | Sphere-containing wells/total wells [16, 29]: 96/96 | Sphere-containing wells/total wells [16, 30]: 46/96 | Sphere-containing wells/total wells [16, 31]: 90/96 | Sphere-containing wells/total wells [16, 32]: 95/96 | Sphere-containing wells/total wells [16, 33]: 7/96 | Sphere-containing wells/total wells [16, 34]: 34/96 | Sphere-containing wells/total wells [16, 35]: 96/96 | sphere formation activity ([16]; DLD-1, short-term (3–4 days) treatment): significantly abrogated | tumour formation [17]: significantly reduced

O[C@H]1CC[C@H](Oc2cccc3cnc(Nc4ccc5nc[nH]c5c4)nc23)CC1 [NCB-0970]
inhibition at 0.1 µM [1]: 3.9% | inhibition at 0.1 µM [2]: 14.4% | inhibition at 0.1 µM [3]: 45.6% | inhibition at 0.1 µM [4]: 14.2% | inhibition at 0.1 µM [5]: 23.9% | inhibition at 0.1 µM ([6]; read-out: Percentage inhibition of CDK2/CycA2): 93% | inhibition at 0.1 µM [7]: -9.3% | inhibition at 0.1 µM [8]: 14.3% | inhibition at 0.1 µM [9]: -0.8% | inhibition at 0.1 µM [10]: 1% | inhibition at 0.1 µM [11]: -2.8% | inhibition at 0.1 µM [12]: 11.4% | inhibition at 0.1 µM [13]: -4.4% | >4N (%) ([14]; 24 h): 9.1% | G0/G1 (%) ([14]; 24 h): 24.5% | G2/M (%) ([14]; 24 h): 35.8% | S (%) ([14]; 24 h): 10.7% | SubG1 (%) ([14]; 24 h): 20% | >4N (%) ([14]; 48 h): 8.5% | G0/G1 (%) ([14]; 48 h): 21% | G2/M (%) ([14]; 48 h): 40.3% | S (%) ([14]; 48 h): 10.7% | SubG1 (%) ([14]; 48 h): 19.5% | downregulation of expression of putative colorectal CSC markers CD44, CD133, ALDH1 [15]: not | Sphere-containing wells/total wells [16, 18]: 40/96 | Sphere-containing wells/total wells [16, 19]: 96/96 | Sphere-containing wells/total wells [16, 20]: 96/96 | Sphere-containing wells/total wells [16, 21]: 51/96 | Sphere-containing wells/total wells [16, 22]: 95/96 | Sphere-containing wells/total wells [16, 23]: 96/96 | Sphere-containing wells/total wells [16, 24]: 16/96 | Sphere-containing wells/total wells [16, 25]: 75/96 | Sphere-containing wells/total wells [16, 26]: 95/96 | Sphere-containing wells/total wells [16, 27]: 55/96 | Sphere-containing wells/total wells [16, 28]: 95/96 | Sphere-containing wells/total wells [16, 29]: 96/96 | Sphere-containing wells/total wells [16, 30]: 65/96 | Sphere-containing wells/total wells [16, 31]: 94/96 | Sphere-containing wells/total wells [16, 32]: 96/96 | Sphere-containing wells/total wells [16, 33]: 45/96 | Sphere-containing wells/total wells [16, 34]: 95/96 | Sphere-containing wells/total wells [16, 35]: 96/96 | tumour formation [17]: not
